# From US10440975B2, “Feed additive composition for reducing methane gas produced by ruminant animals” (CJ CHEILJEDANG CORPORATION, priority 2014, dated 2019)
# System: rumen fluid
# Experiment: Rumen simulation continuous culture system (RSCC): methane production, pH, digestibility
# Assay type: cell-based
# Conditions: vs control group
# Procedure: 0.12 mL of a micromineral solution was added to 250 mL of distilled water in an 2 L of Erlenmeyer flask and stirred. Another 250 mL of distilled water was added, and then stirred for 20 minutes. Then, 250 mL of an in vitro buffer solution was added and stirred for 10 minutes. Then, 250 mL of a macromineral solution was added and stirred for 15 minutes. Then, 1.25 mL of a resazurin solution was added to the mixture and stirred. Then, the flask was sealed with aluminum foil and heated while maintaining an anaerobic condition by bubbling CO2 gas in a Hungate anaerobic culture tube. When the solution started boiling, the solution was heated for 10 more minutes and then cooled down. 50 mL of a reduction solution was added to the cooled solution to obtain a buffer.
# A sampled rumen fluid was first filtered through eight-layer gauze and then through glass wool. The filtered rumen fluid was maintained in an anaerobic condition by CO2 bubbling. While maintaining the anaerobic condition by CO2 bubbling, the buffer solution prepared in 1) above was mixed with the rumen fluid (250 mL of the rumen fluid, 600 mL of the buffer solution).
# 10 g of a substrate was added to a fermenter. The buffer solution prepared in 1) was added into a buffer bag while maintaining the anaerobic condition. A Tedlar bag filled with CO2 gas was connected to the buffer bag, and a tube connected to the buffer bag was connected to a buffer inlet port of the fermenter lid. Then a tube connected to a gas collecting bag was connected to a gas collecting port of the fermenter lid (a tube for gas was used). A pH probe and a temperature probe were placed deep enough to reach the culture medium while not touching the impellers. In the meantime, a feed inlet tube was placed deep enough to reach the culture medium through the feeding port of the fermenter lid. The fermenter lid was then connected to the fermenter and an anaerobic condition inside the fermenter was maintained by using vacuum grease and Teflon tape. CO2 gas was introduced into the fermenter through the gas collecting port for about 10 minutes (making the inside of the fermenter anaerobic, continuously introducing CO2 gas until the initiation of cultivation). All joint connections were sealed with vacuum grease and Teflon tape. Once all devices were installed, a peristaltic pump was activated and the buffer solution was introduced into the fermenter. The anaerobic culture medium was introduced into the fermenter until it overflowed, and then the CO2 gas introduction into the fermenter was discontinued and all inlet ports were sealed. The fermenter was then connected to a circulator, and cultivation started at 39° C. with a stirring speed between 99 rpm and 102 rpm. The pH of the culture medium of the fermenter was between 6.8 and 7.1, and a temperature was maintained at between 39° C. and 40° C. A turnover rate of the culture medium was stabilized at 0.042 h^−1 while a turnover rate of the substrate was stabilized at 0.017 h^−1.
# Below is an experiment on reduction of methane production conducted in accordance with the above operation method using the RSCC system of 3) of Preparation Example. A feed additive for reducing methane was added with the substrate when the substrate was added.
# The RSCC system was operated for five days of adjustment, and then total gas production, methane production, and pH values of the control group were measured for three days. After the measurements of the control group were completed, DADS was added at ratios of 0.1 wt %, 0.2 wt %, and 0.4 wt % per 10 g of a substrate, and then total gas production, methane production, and pH values were measured at the same time for another three days. The methane reduction rate was measured after having an adjustment period with a newly sampled rumen fluid every time one additive examines.
# [1] = additive 0.1 wt % per 10 g of substrate
# [2] = additive 0.5 wt % per 10 g of substrate
molecule,measurement,setting,value
"COc1ccc2cc3[n+](cc2c1OC)CCc1cc2c(cc1-3)OCO2 [Berberine, 5,6-dihydro-9,10-dimethoxybenzo[g]-1,3-benzodioxolo[5,6-a]quinolizinium]",Methane Reduction (%),[1],6.7%
same,Methane Reduction (%),additive 0.2 wt % per 10 g of substrate,12.4%
same,Methane Reduction (%),[2],45.5%
"C=CCSSCC=C [DADS, 4,5-dithia-1,7-octadiene diallyldisulfide]",Methane Reduction (%),[1],30.5%
O=[N+]([O-])O [Nitrate],Methane Reduction (%),additive 0.35 wt % per 10 g of substrate,14.0%
same,Methane Reduction (%),[2],31.0%
same,Methane Reduction (%),additive 1.0 wt % per 10 g of substrate,8.1%
((2R)-2-amino-3-[(S)-prop-2-enylsulfinyl] propanoic acid [Alliin],Methane Reduction (%),[2],21.9%
